Measured values reported in ChEMBL document CHEMBL4052617, “Antibacterial activity of N-methylbenzofuro[3,2-b]quinoline and N-methylbenzoindolo[3,2-b]-quinoline derivatives and study of their mode of action” (2017).
Converted amounts (≈) assume the structure as drawn.

Key:
Format in all cases: functional
[1] = system: Escherichia coli; experiment: Antibacterial activity against Escherichia coli ATCC 25922 after 18 hrs by Mueller-Hinton broth microdilution method; settings: ATCC 25922, 18 h
[2] = system: Staphylococcus aureus; experiment: Antibacterial activity against Staphylococcus aureus ATCC 29213 after 18 hrs by cation adjusted Mueller-Hinton broth microdilution method; settings: ATCC 29213, 18 h
[3] = system: Pseudomonas aeruginosa; experiment: Antibacterial activity against multidrug-resistant Pseudomonas aeruginosa ATCC BAA2108 after 18 hrs by Mueller-Hinton broth microdilution method; settings: ATCC BAA2108, 18 h
[4] = system: Escherichia coli; experiment: Antibacterial activity against Escherichia coli ATCC […] expressing NDM-1 beta-lactamase after 18 hrs by Mueller-Hinton broth microdilution method
[5] = system: Enterococcus faecium; experiment: Antibacterial activity against antibiotic-susceptile Enterococcus faecium ATCC 49624 after 18 hrs by brain heart infusion broth microdilution method; settings: ATCC 49624, 18 h
[6] = system: Klebsiella pneumoniae; experiment: Antibacterial activity against Klebsiella pneumoniae ATCC BAA2470 expressing NDM-1 beta-lactamase after 18 hrs by Mueller-Hinton broth microdilution method; settings: ATCC BAA2470, 18 h
[7] = system: Staphylococcus aureus; experiment: Antibacterial activity against methicillin-resistant Staphylococcus aureus ATCC BAA41 after 18 hrs by cation adjusted Mueller-Hinton broth microdilution method; settings: ATCC BAA41, 18 h
[8] = system: Bacillus subtilis; experiment: Antibacterial activity against Bacillus subtilis 168 after 18 hrs by Mueller-Hinton broth microdilution method; settings: subsp. subtilis str. 168, 18 h
[9] = system: Enterococcus faecium; experiment: Antibacterial activity against vancomycin-resistant Enterococcus faecium ATCC 700221 after 18 hrs by brain heart infusion broth microdilution method; settings: ATCC 700221, 18 h

Row | SMILES | MIC [1] [µg/mL] | MIC [2] [µg/mL] | MIC [3] [µg/mL] | MIC [4] [µg/mL] | MIC [5] [µg/mL] | MIC [6] [µg/mL] | MIC [7] [µg/mL] | MIC [8] [µg/mL] | MIC [9] [µg/mL]
1 | C[n+]1c2ccccc2c(Nc2ccccc2)c2oc3ccccc3c21.[I-] | 16 | 8 | > 64 | 16 | 12 | > 64 | 8 | 8 | 12
2 | Cc1ccccc1Nc1c2ccccc2[n+](C)c2c1oc1ccccc12.[I-] | 16 | 8 | > 64 | 16 | 12 | > 64 | 8 | 8 | 12
3 | C[n+]1c2ccccc2c(Nc2ccc(F)cc2F)c2[nH]c3ccccc3c21.[I-] | 8 | 4 | 64 | 8 | 8 | 64 | 4 | 4 | 8
4 | CCOc1ccc(Nc2c3ccccc3[n+](C)c3c2oc2ccccc23)cc1.[I-] | 8 | 4 | 64 | 8 | 8 | 64 | 4 | 4 | 8
5 | CCOc1ccc(Nc2c3ccccc3[n+](C)c3c2[nH]c2ccccc23)cc1.[I-] | 6 | 2 | 48 | 6 | 4 | 48 | 2 | 2 | 4
6 | C[n+]1c2ccccc2c(Nc2ccc(OC(F)(F)F)cc2)c2[nH]c3ccccc3c21.[I-] | 6 | 2 | 48 | 6 | 4 | 48 | 2 | 2 | 4
7 | CCOc1ccccc1Nc1c2ccccc2[n+](C)c2c1[nH]c1ccccc12.[I-] | 8 | 4 | 64 | 8 | 6 | 64 | 4 | 4 | 6
8 | C[n+]1c2ccccc2c(Nc2ccc(F)cc2)c2oc3ccccc3c21.[I-] | 12 | 6 | > 64 | 12 | 8 | > 64 | 6 | 6 | 8
9 | C[n+]1c2ccccc2c(Nc2cccc(F)c2)c2oc3ccccc3c21.[I-] | 16 | 8 | > 64 | 16 | 12 | > 64 | 8 | 8 | 12
10 | Cc1cc(C)cc(Nc2c3ccccc3[n+](C)c3c2oc2ccccc23)c1.[I-] | 12 | 6 | > 64 | 12 | 8 | > 64 | 6 | 6 | 8
11 | Cc1ccc(Nc2c3ccccc3[n+](C)c3c2oc2ccccc23)cc1F.[I-] | 12 | 6 | > 64 | 12 | 8 | > 64 | 6 | 6 | 8
12 | COc1ccccc1Nc1c2ccccc2[n+](C)c2c1oc1ccccc12.[I-] | 12 | 6 | > 64 | 12 | 8 | > 64 | 6 | 6 | 8
13 | Cc1ccc(Nc2c3ccccc3[n+](C)c3c2oc2ccccc23)cc1C.[I-] | 12 | 6 | > 64 | 12 | 8 | > 64 | 6 | 6 | 8
14 | Cc1cc(C)cc(Nc2c3ccccc3[n+](C)c3c2[nH]c2ccccc23)c1.[I-] | 8 | 4 | > 64 | 8 | 8 | > 64 | 4 | 4 | 8
15 | Cc1ccc(Nc2c3ccccc3[n+](C)c3c2oc2ccccc23)cc1.[I-] | 12 | 6 | > 64 | 12 | 8 | > 64 | 6 | 6 | 8
16 | COc1cccc(OC)c1C(=O)N[C@@H]1C(=O)N2[C@@H]1SC(C)(C)[C@@H]2C(=O)O [METHICILLIN] | 4 (≈ 10.5 µM) | 1 (≈ 2.63 µM) | > 192 | > 192 |  | > 192 | > 192 | 0.5 (≈ 1.31 µM) | 

Row | SMILES | MIC [1] [µg/mL] | MIC [2] [µg/mL] | MIC [3] [µg/mL] | MIC [4] [µg/mL] | MIC [5] [µg/mL] | MIC [6] [µg/mL] | MIC [7] [µg/mL] | MIC [8] [µg/mL] | MIC [9] [µg/mL]
17 | Cc1cc(F)ccc1Nc1c2ccccc2[n+](C)c2c1oc1ccccc12.[I-] | 12 | 6 | > 64 | 12 | 8 | > 64 | 6 | 6 | 8
18 | COc1cccc(Nc2c3ccccc3[n+](C)c3c2[nH]c2ccccc23)c1.[I-] | 8 | 4 | > 64 | 8 | 8 | > 64 | 4 | 4 | 8
19 | CN[C@H](CC(C)C)C(=O)N[C@H]1C(=O)N[C@@H](CC(N)=O)C(=O)N[C@H]2C(=O)N[C@H]3C(=O)N[C@H](C(=O)N[C@H](C(=O)O)c4cc(O)cc(O)c4-c4cc3ccc4O)[C@H](O)c3ccc(c(Cl)c3)Oc3cc2cc(c3O[C@@H]2O[C@H](CO)[C@@H](O)[C@H](O)[C@H]2O[C@H]2C[C@](C)(N)[C@H](O)[C@H](C)O2)Oc2ccc(cc2Cl)[C@H]1O [VANCOMYCIN] | 2 (≈ 1.38 µM) |  | > 64 | 6 (≈ 4.14 µM) |  | > 64 |  | 1 (≈ 0.69 µM) | > 64
20 | C[n+]1c2ccccc2c(Nc2cccc(F)c2)c2[nH]c3ccccc3c21.[I-] | 12 | 6 | > 64 | 12 | 6 | > 64 | 6 | 6 | 6
21 | C[n+]1c2ccccc2c(Nc2ccc(Cl)cc2)c2oc3ccccc3c21.[I-] | 12 | 6 | > 64 | 12 | 8 | > 64 | 6 | 6 | 8
22 | Cc1ccc(Nc2c3ccccc3[n+](C)c3c2[nH]c2ccccc23)cc1F.[I-] | 8 | 4 | 64 | 8 | 8 | 64 | 4 | 4 | 8
23 | Cc1cc(F)ccc1Nc1c2ccccc2[n+](C)c2c1[nH]c1ccccc12.[I-] | 8 | 4 | 64 | 8 | 8 | 64 | 4 | 4 | 8
24 | Cc1ccccc1Nc1c2ccccc2[n+](C)c2c1[nH]c1ccccc12.[I-] | 12 | 6 | > 64 | 12 | 8 | > 64 | 6 | 6 | 8
25 | Cc1ccc(Nc2c3ccccc3[n+](C)c3c2[nH]c2ccccc23)cc1.[I-] | 8 | 4 | 64 | 8 | 6 | 64 | 4 | 4 | 6
26 | COc1cccc(Nc2c3ccccc3[n+](C)c3c2oc2ccccc23)c1.[I-] | 12 | 6 | > 64 | 12 | 8 | > 64 | 6 | 6 | 8
27 | CCc1ccc(Nc2c3ccccc3[n+](C)c3c2[nH]c2ccccc23)cc1.[I-] | 8 | 4 | 64 | 8 | 6 | 64 | 4 | 4 | 6
28 | C[n+]1c2ccccc2c(Nc2ccc(F)cc2)c2[nH]c3ccccc3c21.[I-] | 8 | 4 | 64 | 8 | 8 | 64 | 4 | 4 | 8
29 | C[n+]1c2ccccc2c(Nc2ccc(Cl)cc2)c2[nH]c3ccccc3c21.[I-] | 8 | 4 | 64 | 8 | 6 | 64 | 4 | 4 | 6
30 | CCc1ccc(Nc2c3ccccc3[n+](C)c3c2oc2ccccc23)cc1.[I-] | 12 | 6 | > 64 | 12 | 8 | > 64 | 6 | 6 | 8
31 | CCOc1ccccc1Nc1c2ccccc2[n+](C)c2c1oc1ccccc12.[I-] | 12 | 6 | > 64 | 12 | 8 | > 64 | 6 | 6 | 8
